“Also recorded” adds a separate entry of the source.
Tests used:
[1] = target: T1, Nav1.5 channel currents (INa, ILATE) in M3q iPS-CMs (Homo sapiens, UniProt Q14524); experiment: Whole-cell patch-clamp of INa and ILATE in M3q-DREADD iPS-CMs activated with CNO; format: cell-based; details: 100 nM CNO
T1 construct: host or cells: human iCell^2 iPS cardiomyocytes (transfected with M3q DREADD in A5; endogenous AT1 receptor in A7)
Description: Control is CNO application to cells with no M3q. Mean±SD % fluorescence change for 20 cells per group; an example photobleaching montage is inset. […] Leftwards shifts in each parameter are precluded by U73122 or by 200 μM diC8-PIP2 in the pipette but are not sensitive to staurosporine or BAPTA. The cells were perfused with an extracellular solution containing (in mM): 130 NaCl, 5 CsCl, 1.2 MgCl2, 1.5 CaCl2), 8 Glucose, 10 HEPES (pH7.4). […] nitrendipine was added to the recording solution to block Ca^2+ flux through Cav channels. Patch pipettes with a resistance of 2.5-4 MQ are filled with a solution containing (in mM): 60 CsCl, 80 CsF, 2 MgCl2, 10 EGTA, 5 Na2ATP, 5 HEPES (pH 7.4). Currents were low pass (Bessel) filtered at 9 kHz and digitized at 50 kHz and were collected from cells with a series resistance <15 MQ; this was compensated by 70%.
Results. Studies are designed to evaluate if hydrolysis of PIP2 modulates Nav1.5 channel currents in cardiomyocytes. To perform these experiments, we used human iPS cardiomyocytes (iCell^2 iPS-CMs) from Fuji-Film Cellular Dynamics. These iPS-CMs are a valuable model system for human cardiomyocytes that retain many of the key characteristics of the native cells. Here, we transfected the iPS-CMs to express the Gαq-coupled M3q Designer Receptors Exclusively Activated by Designer Drugs (DREADD) receptor. We use a magnetic transfection system from Oz Biosciences that we have previously employed with cardiomyocytes. First, we tested the efficacy of M3q to hydrolyze PIP2 in our model system. To accomplish this, we studied uncoupling of the PIP2 biosensor iRFP-PHPLCδ1 from the plasma membrane in response to chemogenic activation of M3q by 100 nM clozapine N-oxide (CNO, Tocris Biosciences).
These findings are consistent with our prior observations and the work using optogenetically activated PI-phosphatases to deplete PIP2 in HEK293 cells […] Xenopus laevis oocytes. […] Having established a time frame for PIP2 hydrolysis in our system, we used whole-cell patch-clamp to study INa in paired experiments, before and after chemogenic activation of M3q. Applying 100 nM CNO evoked a leftward shift in the current-voltage (I-V) relationship of INa such that peak INa shifted from −25 to −35 mV. At −35 mV, the peak current-density increased from −220±5 pA/pF to −266±4 pA/pF at −35 mV (n=8, P<0.001, paired Student's t-test). […] However, in contrast to our findings with Nav1.4, activating M3q signaling also left-shifted the steady state inactivation curve of Nav1.5 (V½SSI), from −81.4±2 to −89.7±2 mV (n=8, P<0.01, paired t-test; FIGS. 2C, 2D). These studies indicate that Nav1.5 channels are regulated by hydrolysis of PIP2 and that there are distinctions between PIP2 regulation of Nav1.5 and Nav1.4.
Next, we studied the effect of M3q-activation on ILATE by recording currents evoked by a 400 ms depolarizing pulse to −20 mV before and during receptor activation. The magnitude of ILATE represents the mean current 150-200 ms after peak INa and is expressed as a percentage of peak INa. […] The effects of M3q activation on V½ACT, V½SSI, and the development of ILATE were not affected by staurosporine (1 μM, 1-hour preincubation) or BAPTA (10 mM in the recording pipette), making a role for IP3 or DAG unlikely. […] Similar data were obtained for Nav1.5 expressed with Navβ1 and the M3q-DREADD receptor in HEK293T cells. This experiment validates that the findings are not restricted to a particular model system or cellular environment.
Measure modulation in INa and ILATE by endogenous Gαq signaling. Like native cardiomyocytes, human iPS-CMs express AT1 receptors. Here, the effects of Ang II (Tocris) on Nav1.5 channel function in iPS-CMs is tested using four whole-cell patch-clamp recording protocols. […]

[2] = target: T2, Nav1.5-K1493E (Homo sapiens, UniProt Q14524, K1493E); experiment: Whole-cell ILATE of Nav1.5-K1493E with CRY2-5ptase; format: cell-based; details: 200 μM diC8-PI(4,5)P2 in pipette
T2 construct: expressed in transfected cells; HEK293T
From the text: FIGS. 31A-31D show representative currents from Nav1.5-K1493E showing enhanced ILATE that is further augmented by activation of CRY2-5ptase.
Multiple dysrhythmic disorders are associated with mutations in Nav1.5. Nav1.5-E1784K is the most common variant and is associated with LQT3, BrS, and sinus node dysfunction. E1784K is in the proximal C-terminal domain where it disrupts an interaction with K1493 (DIII-DIV linker) that alters channel gating and increases ILATE. The complementary mutation, K1493E also augments ILATE. […] These findings indicate a potential role for PI(4,5)P2 in the mechanism of, at least some, Nav1.5 disease mutants.

[3] = target: T3, IK1 (Kir2.1) (Rattus norvegicus, UniProt Q64273); details: diC8-PI(4,5)P2 in recording pipette, concentration dependent; RVCMs, 2% O2; cited from earlier work
T3 construct: endogenous in cells; host or cells: rat ventricular cardiomyocytes (RVCMs)
T3 sequence (Q64273 1-427): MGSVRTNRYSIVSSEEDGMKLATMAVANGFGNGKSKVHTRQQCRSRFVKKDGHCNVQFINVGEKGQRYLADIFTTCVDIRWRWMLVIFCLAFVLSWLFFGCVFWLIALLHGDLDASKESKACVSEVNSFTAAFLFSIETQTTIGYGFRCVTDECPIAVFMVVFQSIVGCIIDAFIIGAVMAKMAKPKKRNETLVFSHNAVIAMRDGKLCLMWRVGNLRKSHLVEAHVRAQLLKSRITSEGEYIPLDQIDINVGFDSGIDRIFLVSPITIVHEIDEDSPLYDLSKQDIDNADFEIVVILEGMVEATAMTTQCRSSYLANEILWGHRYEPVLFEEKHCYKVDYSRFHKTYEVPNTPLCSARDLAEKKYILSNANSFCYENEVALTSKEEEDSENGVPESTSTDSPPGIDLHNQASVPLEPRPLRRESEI

CCCCCCCC(=O)OC[C@H](COP(=O)(O)O[C@@H]1[C@H](O)[C@H](O)[C@@H](OP(=O)(O)O)[C@H](OP(=O)(O)O)[C@H]1O)OC(=O)CCCCCCC [diC8-PIP2]
effect on CNO-evoked increase in ILATE ([1]; 200 μM diC8-PIP2 in pipette): precluded
effect on CNO-evoked leftwards shifts in V½ACT and V½SSI ([1]; 200 μM diC8-PIP2 in pipette): precluded
effect on CNO (M3q activation) effects on V½ACT, V½SSI and ILATE ([1]; staurosporine 1 μM 1-hour preincubation, BAPTA 10 mM in pipette, U73122 5 μM, diC8-PIP2 200 μM in pipette): blocked; also recorded: abolished
effect on Nav1.5-K1493E ILATE [2]: abolishes; also recorded: opposes
effect on further increase in ILATE on activation of CRY2-5ptase [2]: precluded
effect on hypoxic inhibition of IK1 [3]: opposed
